Reference: patent publication US12486280B2, “CDK inhibitors and uses thereof” (California Institute of Technology, priority 2018, dated 2025)
Converted amounts (≈) assume the structure as drawn. Where two headings read alike, the source gives them in different places.

Assays:
CDK4 = CDK4 (Homo sapiens (Human), UniProt P11802); test: Cdk4 and 6 Enzymatic Inhibition Assay (radiometric 33PanQinase, Ki determination); type: biochemical
Protocol: (§1) 10 distinct concentrations were prepared, with a dilution endpoint of 6×10^−9 M in 100% DMSO. 100% DMSO was used as a control. 10 μL from each of the serial dilutions were aliquoted into separate wells of a 96-well plate and 90 μL of water were added to each of those wells. The plate was shaken thoroughly, and 5 μL from each of the plate's wells were transferred into wells of the assay plate. The final volume of wells in the assay plate was 50 μL. A11 compounds were tested at 10 assay concentrations in the range from 2×10^−6 M to 6×10^−11 M. The final DMSO concentration in the wells of the assay plate was 1% in all cases.
(§2) A radiometric protein kinase assay (33PanQinase® Activity Assay) was used for measuring the kinase activity of six protein kinases. A11 kinase assays were performed in 96-well FlashPlates™ from PerkinElmer (Boston, MA, USA). The assay for all protein kinases contained 70 mM HEPES-NaOH pH 7.5, 3 mM MgCl2, 3 mM MnCl2, 3 μM Na-orthovanadate, 1.2 mM DTT, 50 μg/mL PEG20000, ATP [γ-33P]-ATP (approx. 9×1005 cpm per well), protein kinase and substrate. The reaction cocktails were incubated at 30° C. for 60 minutes. The reaction was stopped with 50 μL of 2% (v/v) H3PO4, and plates were aspirated and washed two times with 200 μL 0.9% (w/v) NaCl. Incorporation of ^33Pi was determined with a microplate scintillation counter (Microbeta, Wallac).

CDK6 = CDK6 (Homo sapiens (Human), UniProt Q00534); test: as above; type: biochemical
Chain of CDK6 (Q00534 whole entry): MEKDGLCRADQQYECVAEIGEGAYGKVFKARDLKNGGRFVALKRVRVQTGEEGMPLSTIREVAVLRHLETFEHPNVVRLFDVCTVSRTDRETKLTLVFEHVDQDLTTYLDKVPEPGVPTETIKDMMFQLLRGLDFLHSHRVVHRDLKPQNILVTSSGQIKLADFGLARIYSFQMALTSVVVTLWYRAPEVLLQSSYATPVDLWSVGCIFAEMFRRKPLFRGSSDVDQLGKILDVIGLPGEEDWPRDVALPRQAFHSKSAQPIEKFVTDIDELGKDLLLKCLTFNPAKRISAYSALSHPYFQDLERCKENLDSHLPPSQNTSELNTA
Chain of CDK6 (P24385 whole entry partner): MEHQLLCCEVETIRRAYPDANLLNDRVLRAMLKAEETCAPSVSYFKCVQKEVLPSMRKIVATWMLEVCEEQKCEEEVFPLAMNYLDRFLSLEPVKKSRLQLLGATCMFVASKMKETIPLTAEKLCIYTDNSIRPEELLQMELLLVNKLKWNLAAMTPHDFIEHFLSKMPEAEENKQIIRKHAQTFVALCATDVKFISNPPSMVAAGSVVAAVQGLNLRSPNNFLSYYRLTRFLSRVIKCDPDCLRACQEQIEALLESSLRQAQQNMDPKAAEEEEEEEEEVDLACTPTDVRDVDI
Protocol: as §1, §2

hERG potassium channels = hERG potassium channels (Homo sapiens (Human), UniProt Q12809); test: hERG Inhibition Assay (QPatch automated patch clamp, CHO cells); settings: percent of control current
Chain of hERG potassium channels (Q12809 whole entry): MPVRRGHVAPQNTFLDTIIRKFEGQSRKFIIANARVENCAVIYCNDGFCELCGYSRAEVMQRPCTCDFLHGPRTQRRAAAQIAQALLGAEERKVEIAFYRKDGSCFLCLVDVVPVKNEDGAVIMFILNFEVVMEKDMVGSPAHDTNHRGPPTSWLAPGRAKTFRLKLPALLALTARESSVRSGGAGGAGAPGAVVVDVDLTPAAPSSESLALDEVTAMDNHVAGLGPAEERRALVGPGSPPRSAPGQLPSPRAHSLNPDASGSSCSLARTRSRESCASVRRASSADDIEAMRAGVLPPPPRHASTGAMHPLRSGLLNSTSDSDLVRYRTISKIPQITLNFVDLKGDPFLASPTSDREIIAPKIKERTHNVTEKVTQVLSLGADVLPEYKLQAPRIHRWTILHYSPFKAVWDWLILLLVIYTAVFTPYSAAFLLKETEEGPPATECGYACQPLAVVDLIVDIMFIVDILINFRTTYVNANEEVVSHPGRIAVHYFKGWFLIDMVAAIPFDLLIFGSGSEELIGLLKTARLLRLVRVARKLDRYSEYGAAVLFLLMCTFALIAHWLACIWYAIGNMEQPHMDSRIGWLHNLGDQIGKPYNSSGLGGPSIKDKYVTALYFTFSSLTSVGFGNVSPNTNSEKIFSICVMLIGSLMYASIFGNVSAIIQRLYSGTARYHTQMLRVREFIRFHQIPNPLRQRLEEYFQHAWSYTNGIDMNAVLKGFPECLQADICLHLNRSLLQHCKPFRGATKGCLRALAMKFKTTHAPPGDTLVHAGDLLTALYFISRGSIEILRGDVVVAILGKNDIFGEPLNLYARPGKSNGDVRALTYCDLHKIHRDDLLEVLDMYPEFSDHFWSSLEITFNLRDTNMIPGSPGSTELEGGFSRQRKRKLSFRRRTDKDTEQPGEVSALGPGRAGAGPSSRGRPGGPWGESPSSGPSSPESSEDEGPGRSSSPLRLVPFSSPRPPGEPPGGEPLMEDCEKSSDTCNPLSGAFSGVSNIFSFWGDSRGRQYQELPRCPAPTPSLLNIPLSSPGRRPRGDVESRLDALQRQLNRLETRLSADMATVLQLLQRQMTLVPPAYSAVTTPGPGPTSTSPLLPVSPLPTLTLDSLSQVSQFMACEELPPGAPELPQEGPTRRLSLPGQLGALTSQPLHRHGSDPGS

[1] = tested on: drug-resistant cell lines of Table 2 (NCI-H1437, OV207, HCC1806, NCI-H2172); test: Cell Line Growth Retardation Assay, resistant cohort; type: cell-based, human; settings: Homo sapiens, […], geometric mean over resistant cohort; 6 days growth; read-out: AvgResIC50
Protocol: (§3) Cells were seeded at densities of 1,000-5,000 cells per well in 48-well tissue culture plates. After a 24 hours rest period, cells were treated with compound at 10 μM, 2 μM, 0.4 μM, 0.08 μM, 0.016 μM, and 0.0032 μM. A group of cells were treated with the vehicle in which the compound was prepared and served as a control. The cells were grown in the presence of compounds for 6 days and were counted on day 0 and day 6. A11 cell counting was performed using a Synentec Cellavista plate imager. […] Growth inhibition was calculated as a ratio of cell population doublings in the presence of compound versus the absence of compound. […] IC50 values for each compound (see Table 3; reported in μM) were calculated by fitting curves to data points from each dose-response assay using the Proc NLIN function in SAS for Windows version 9.2 (SAS Institute, Inc.).
(§4) These sensitive and resistant cohorts were interrogated for response to each compound, and IC50s were calculated for each cell line using the same technique described above. Average IC50s for the sensitive and resistant cohorts were calculated as geometric means of the group. “Therapeutic Window” for each compound was calculated by dividing the average IC50 for the drug-resistant group by the average IC50 for the drug-sensitive group.

[2] = tested on: drug-sensitive cell lines of Table 2 (EFM-19, MDA-MB-453, T-47D, ZR-75-1, NCI-H441, OVTOKO, NCI-H1838); test: Cell Line Growth Retardation Assay, sensitive cohort; type: cell-based, human; settings: for IC50: Homo sapiens, geometric mean over sensitive cohort, 6 days growth, read-out: AvgSensIC50; for Ther Window: average IC50 drug-resistant group divided by average IC50 drug-sensitive group
Protocol: as §3, §4

[3] = Caco-2 Assay (Papp A to B); settings: human, Caco-2, pH 7.4
[4] = tested on: CYP isozymes (IC50s averaged over the isozymes); test: CYP Enzymatic Inhibition Assay in human liver microsomes
[5] = Measurement of Compound Metabolic Stability in hepatocytes
[6] = Compound Solubility Assay (kinetic solubility); type: physicochemical; settings: kinetic from dmso stock
Protocol: The relative kinetic solubility of each compound was determined at both low (1.2) and neutral (7.4) pH. Compounds were prepared at 10 mM stocks. […] Compounds were allowed to shake at room temperature for 24 hours in 50 mM phosphate buffer pH 7.4, or in SGF buffer pH 1.2 at 37° C. for 24 hours.

Chain of CDK4 (P11802 whole entry): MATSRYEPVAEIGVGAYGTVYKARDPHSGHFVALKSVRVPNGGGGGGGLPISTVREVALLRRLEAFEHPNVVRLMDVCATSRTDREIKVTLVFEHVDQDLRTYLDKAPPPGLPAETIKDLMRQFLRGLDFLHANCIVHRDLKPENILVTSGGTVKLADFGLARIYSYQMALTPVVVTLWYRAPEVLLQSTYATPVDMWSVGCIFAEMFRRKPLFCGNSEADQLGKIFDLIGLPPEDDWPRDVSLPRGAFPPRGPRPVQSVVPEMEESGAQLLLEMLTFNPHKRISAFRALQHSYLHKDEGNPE
Chain of CDK4 (P24385 whole entry partner): as the sequence (P24385 whole entry partner) above

SMILES	Ki (CDK4) [nM]	Ki (CDK6) [nM]	hERG (hERG potassium channels) [%]	IC50 [1] [nM]	IC50 [2] [nM]	Ther Window [2]	Papp A→B at 2 h, 2 μM [3] [×10⁻⁶ cm/s]	IC50 at 10 min [4] [nM]	half-life at 1 μM [5] [h]	solubility kinetic at 24 h ([6]; 50 mM phosphate buffer, pH 7.4, aqueous buffer, read-out: KS7) [µM]	solubility kinetic at 24 h ([6]; simulated gastric fluid, kinetic solubility, SGF buffer pH 1.2, 37° C., 24 hours, read-out: KS1) [µM]
COC1(C)CN(CC[C@]2(C)CN(Cc3ccc(Nc4ncc(F)c(-c5cc(F)c6nc(C)n(C(C)C)c6c5)n4)nc3)CCO2)C1 [Compound A18, (R)-5-fluoro-4-(4-fluoro-1-isopropyl-2-methyl-1H-benzo[d]imidazol-6-yl)-N-(5-((2-(2-(3-methoxy-3-methylazetidin-1-yl)ethyl)-2-methylmorpholino)methyl)pyridin-2-yl)pyrimidin-2-amine]	1.55	7.62	21.45	920	90	10.77	0.11	26800	1.13	–	–
Cc1nc2c(F)cc(-c3nc(Nc4ccc(CN5CCO[C@](C)(CCN(C)CC(F)F)C5)cn4)ncc3F)cc2n1C(C)C [Compound A29, (R)—N-(5-((2-(2-((2,2-difluoroethyl)(methyl)amino)ethyl)-2-methylmorpholino)methyl)pyridin-2-yl)-5-fluoro-4-(4-fluoro-1-isopropyl-2-methyl-1H-benzo[d]imidazol-6-yl)pyrimidin-2-amine]	1.8	10.5	25.45	890	170	5.36	1.95	16400	0.0973	–	–
CNCC[C@]1(C)CN(Cc2ccc(Nc3ncc(F)c(-c4cc(F)c5nc(C)n(C(C)C)c5c4)n3)nc2)CCO1 [Compound A5, (R)-5-fluoro-4-(4-fluoro-1-isopropyl-2-methyl-1H-benzo[d]imidazol-6-yl)-N-(5-((2-methyl-2-(2-(methylamino)ethyl)morpholino)methyl)pyridin-2-yl)pyrimidin-2-amine]	1.21	6.26	14.76	960	180	5.33	–	–	–	–	–
Cc1nc2c(F)cc(-c3nc(Nc4ccc(CN5CCO[C@](C)(CCNCC(F)F)C5)cn4)ncc3F)cc2n1C(C)C [Compound A6, (R)—N-(5-((2-(2-((2,2-difluoroethyl)amino)ethyl)-2-methylmorpholino)methyl)pyridin-2-yl)-5-fluoro-4-(4-fluoro-1-isopropyl-2-methyl-1H-benzo[d]imidazol-6-yl)pyrimidin-2-amine]	0.83	5.35	32.76	1000	100	10.42	1.12	14600	0.237	–	–
Cc1nc2c(F)cc(-c3nc(Nc4ccc(CN5CCO[C@](C)(CCN6CC(C)(O)C6)C5)cn4)ncc3F)cc2n1C(C)C [Compound A10, (R)-1-(2-(4-((6-((5-fluoro-4-(4-fluoro-1-isopropyl-2-methyl-1H-benzo[d]imidazol-6-yl)pyrimidin-2-yl)amino)pyridin-3-yl)methyl)-2-methylmorpholin-2-yl)ethyl)-3-methylazetidin-3-ol]	0.96	5.52	–	970	70	14.08	0.01	–	1.11	–	–
Cc1nc2c(F)cc(-c3nc(Nc4ccc(CN5CCO[C@](C)(CCN6CC(F)C6)C5)cn4)ncc3F)cc2n1C(C)C [Compound A13]	0.92	4.79	23.72	710	70	10.82	1.02	15200	0.148	–	–
Cc1nc2c(F)cc(-c3nc(Nc4ccc(CN5CCO[C@@]6(CCN(C)C6)C5)cn4)ncc3F)cc2n1C(C)C [Compound A39, (R)-5-fluoro-4-(4-fluoro-1-isopropyl-2-methyl-1H-benzo[d]imidazol-6-yl)-N-(5-((2-methyl-6-oxa-2,9-diazaspiro[4.5]decan-9-yl)methyl)pyridin-2-yl)pyrimidin-2-amine]	1.83	6.62	14.81	980	300	3.25	–	–	–	–	–
Cc1nc2c(F)cc(-c3nc(Nc4ccc(CN5CCO[C@](C)(CCNC(C)(C)C)C5)cn4)ncc3F)cc2n1C(C)C [Compound A7, (R)—N-(5-((2-(2-(tert-butylamino)ethyl)-2-methylmorpholino)methyl)pyridin-2-yl)-5-fluoro-4-(4-fluoro-1-isopropyl-2-methyl-1H-benzo[d]imidazol-6-yl)pyrimidin-2-amine]	1	4.24	–	920	160	5.75	0.04	–	1.24	–	–
Cc1nc2c(F)cc(-c3nc(Nc4ccc(CN5CCO[C@](C)(CCN6CC[C@H](F)C6)C5)cn4)ncc3F)cc2n1C(C)C [Compound A14, 5-fluoro-4-(4-fluoro-1-isopropyl-2-methyl-1H-benzo[d]imidazol-6-yl)-N-(5-(((R)-2-(2-((S)-3-fluoropyrrolidin-1-yl)ethyl)-2-methylmorpholino)methyl)pyridin-2-yl)pyrimidin-2-amine]	0.92	4.99	23.34	980	80	11.53	0.69	16900	0.178	–	–
Cc1nc2c(F)cc(-c3nc(Nc4ccc(CN5CCO[C@](C)(CCN)C5)cn4)ncc3F)cc2n1C(C)C [Compound A21, (R)—N-(5-((2-(2-aminoethyl)-2-methylmorpholino)methyl)pyridin-2-yl)-5-fluoro-4-(4-fluoro-1-isopropyl-2-methyl-1H-benzo[d]imidazol-6-yl)pyrimidin-2-amine]	–	–	–	1000	150	6.58	–	–	1.61	–	–
CC[C@@]1(CCN(C)C)CN(Cc2ccc(Nc3ncc(F)c(-c4cc(F)c5nc(C)n(C(C)C)c5c4)n3)nc2)CCO1 [Compound A20, (R)—N-(5-((2-(2-(dimethylamino)ethyl)-2-ethylmorpholino)methyl)pyridin-2-yl)-5-fluoro-4-(4-fluoro-1-isopropyl-2-methyl-1H-benzo[d]imidazol-6-yl)pyrimidin-2-amine]	0.55	3.69	32.36	1000	80	12.21	0.07	24800	1.68	–	–
CC(=O)c1c(C)c2cnc(Nc3ccc(N4CCNCC4)cn3)nc2n(C2CCCC2)c1=O [Palbociclib, reference compound]	–	–	–	–	–	9.37	0.27	97700	0.915	29.6 (≈ 13.2 µg/mL)	196 (≈ 87.6 µg/mL)
